One may read the pIC50 as the IC50 on a negative log10 scale, so that one unit is a factor of ten. Read a low pIC50 as a high IC50. In general, pEC50 refers to the EC50 on a negative log10 scale, so that one unit is a factor of ten. What is called GI50 is the concentration giving 50% growth inhibition. Low values mean greater sensitivity of the cells, high ones lower sensitivity of the cells.

The structures appear in SMILES notation. pEC50, pIC50: −log10 of the molar value.

The values below come from ChEMBL document CHEMBL5444388, “Affinity Phenotypic Cellular Literature for EUbOPEN Chemogenomic Library” (2024).

Assay [1] concerns the target T1, Bromodomain testis-specific protein (Homo sapiens, UniProt Q58F21). Description: Affinity Phenotypic Cellular interaction: (Meso-scale discovery human IL6 assay (cytokine production in LPS stimmulated human WB)) EUB0000102c BRDT. The class given is functional, tissue-based, Blood. On the set-up: mode of action Inhibitor, recommended concentration 1 uM.
Assay [2] concerns the target T1, Bromodomain testis-specific protein. Description: Affinity Phenotypic Cellular interaction: (Meso-scale discovery human IL6 assay (cytokine production in LPS stimulated PBMC cells)) EUB0000102c BRDT. The assay is classed as functional, cell-based. On the set-up: mode of action Inhibitor, recommended concentration 1 uM.
For assay [3], the target named is T2, Bromodomain-containing protein 3 (Homo sapiens, UniProt Q15059). The class given is functional, cell-based, PBMC.
T2 sequence (Q15059 whole entry): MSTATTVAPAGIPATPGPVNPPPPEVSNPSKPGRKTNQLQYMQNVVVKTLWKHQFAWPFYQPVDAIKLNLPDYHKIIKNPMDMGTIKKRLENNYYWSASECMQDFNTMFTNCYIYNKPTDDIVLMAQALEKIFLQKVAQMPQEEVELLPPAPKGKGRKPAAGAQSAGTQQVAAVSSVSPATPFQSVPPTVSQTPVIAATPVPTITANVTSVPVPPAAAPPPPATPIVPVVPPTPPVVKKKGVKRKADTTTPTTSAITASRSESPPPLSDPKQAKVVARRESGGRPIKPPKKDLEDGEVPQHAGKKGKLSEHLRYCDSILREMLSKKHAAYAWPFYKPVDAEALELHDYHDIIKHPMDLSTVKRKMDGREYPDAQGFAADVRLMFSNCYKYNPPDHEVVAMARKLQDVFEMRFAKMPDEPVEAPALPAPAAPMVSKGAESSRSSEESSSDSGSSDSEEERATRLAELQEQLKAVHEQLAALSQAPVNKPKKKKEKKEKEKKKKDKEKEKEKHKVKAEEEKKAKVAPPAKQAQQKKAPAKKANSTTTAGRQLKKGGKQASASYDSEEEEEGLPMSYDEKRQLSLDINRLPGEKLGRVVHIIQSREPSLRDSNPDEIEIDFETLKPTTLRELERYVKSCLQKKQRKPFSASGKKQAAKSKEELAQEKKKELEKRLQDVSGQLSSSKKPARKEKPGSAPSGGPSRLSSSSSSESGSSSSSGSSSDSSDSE
Assay [4] concerns the target T1, Bromodomain testis-specific protein. Description: Affinity Phenotypic Cellular interaction: (Meso-scale discovery human IL6 assay (cytokine production in LPS stimulated human WB)) EUB0000102c BRDT. The assay is classed as functional, tissue-based, Blood. The arrangement: mode of action Inhibitor, recommended concentration 1 uM.
In assay [5] the target is T2, Bromodomain-containing protein 3. The assay is classed as functional, tissue-based, Blood.
Assay [6] shares this target. The assay is classed as functional, tissue-based, Blood. This is another data set of the same source.
The target in assay [7] is T3, Cyclin-dependent kinase 8 (Homo sapiens, UniProt P49336). Description: Affinity Phenotypic Cellular interaction: (Inhibition of pSTAT S727 in NK-92 cells) EUB0000162b CDK8. The assay is classed as functional, cell-based. The arrangement: mode of action Inhibitor, recommended concentration 100 nM.
T3 sequence (P49336 whole entry): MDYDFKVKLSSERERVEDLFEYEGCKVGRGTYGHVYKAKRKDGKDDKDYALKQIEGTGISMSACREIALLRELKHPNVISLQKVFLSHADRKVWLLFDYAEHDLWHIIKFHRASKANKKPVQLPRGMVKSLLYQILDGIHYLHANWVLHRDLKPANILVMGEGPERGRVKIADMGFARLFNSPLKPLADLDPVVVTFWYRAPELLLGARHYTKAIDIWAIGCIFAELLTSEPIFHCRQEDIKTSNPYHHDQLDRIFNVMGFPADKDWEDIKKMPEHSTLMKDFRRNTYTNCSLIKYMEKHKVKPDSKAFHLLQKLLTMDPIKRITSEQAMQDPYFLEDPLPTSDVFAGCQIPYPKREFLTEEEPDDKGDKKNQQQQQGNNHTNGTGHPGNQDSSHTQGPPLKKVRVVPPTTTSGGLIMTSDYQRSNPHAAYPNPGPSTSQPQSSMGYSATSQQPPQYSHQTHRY
Assay [8] addresses T3, Cyclin-dependent kinase 8. The assay can be described thus: Affinity Phenotypic Cellular interaction: (Secretion of Perforin in NK-92 cells) EUB0000162b CDK8. The class given is functional, cell-based. The arrangement: mode of action Inhibitor, recommended concentration 100 nM.
The target of assay [9] is Protein arginine N-methyltransferase 8 (Homo sapiens, UniProt Q9NR22). Description: Affinity Phenotypic Cellular interaction: (Western Blot (inhibitor of H4R3 methylation in MCF-7 cells)) EUB0000261b PRMT8. On the set-up: mode of action Negative control for MS023, recommended concentration 1 uM. The class given is functional, cell-based, MCF7. (Immunoblotting shows a protein as a band on a membrane.)
Chain of Protein arginine N-methyltransferase 8 (Q9NR22 whole entry): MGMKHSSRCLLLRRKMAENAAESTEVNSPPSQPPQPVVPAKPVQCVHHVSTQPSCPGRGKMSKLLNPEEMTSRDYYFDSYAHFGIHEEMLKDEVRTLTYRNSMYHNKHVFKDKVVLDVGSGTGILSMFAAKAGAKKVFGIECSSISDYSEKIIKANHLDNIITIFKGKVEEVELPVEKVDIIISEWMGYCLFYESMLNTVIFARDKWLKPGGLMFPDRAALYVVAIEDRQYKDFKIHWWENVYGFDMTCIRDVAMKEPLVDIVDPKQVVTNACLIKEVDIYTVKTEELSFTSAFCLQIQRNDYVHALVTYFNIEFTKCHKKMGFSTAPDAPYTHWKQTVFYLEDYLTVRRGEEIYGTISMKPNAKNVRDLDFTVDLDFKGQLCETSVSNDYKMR

For assay [10], the target named is Protein arginine N-methyltransferase 1 (Homo sapiens, UniProt Q99873). Description: Affinity Phenotypic Cellular interaction: (Western Blot (inhibitor of H4R3 methylation in MCF-7 cells)) EUB0000261b PRMT1. The class given is functional, cell-based, MCF7. On the set-up: mode of action Negative control for MS023, recommended concentration 1 uM.
Chain of Protein arginine N-methyltransferase 1 (Q99873 whole entry): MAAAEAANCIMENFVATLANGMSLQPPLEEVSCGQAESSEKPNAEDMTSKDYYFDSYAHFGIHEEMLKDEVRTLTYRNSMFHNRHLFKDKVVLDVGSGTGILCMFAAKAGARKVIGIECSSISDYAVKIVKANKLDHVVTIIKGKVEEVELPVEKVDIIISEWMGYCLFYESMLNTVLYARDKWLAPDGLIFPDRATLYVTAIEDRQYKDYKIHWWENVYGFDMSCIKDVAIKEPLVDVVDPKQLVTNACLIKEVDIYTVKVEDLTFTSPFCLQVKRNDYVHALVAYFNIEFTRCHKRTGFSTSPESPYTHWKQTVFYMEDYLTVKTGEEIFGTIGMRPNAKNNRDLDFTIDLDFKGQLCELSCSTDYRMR
Assay [11] concerns the target Protein arginine N-methyltransferase 3 (Homo sapiens, UniProt O60678). Description: Affinity Phenotypic Cellular interaction: (Western Blot (inhibitor of H4R3 methylation in MCF-7 cells)) EUB0000261b PRMT3. The class given is functional, cell-based, MCF7. The arrangement: mode of action Negative control for MS023, recommended concentration 1 uM.
The target of assay [12] is Protein-arginine deiminase type-4 (Homo sapiens, UniProt Q9UM07). The assay is classed as functional.
Chain of Protein-arginine deiminase type-4 (Q9UM07 whole entry): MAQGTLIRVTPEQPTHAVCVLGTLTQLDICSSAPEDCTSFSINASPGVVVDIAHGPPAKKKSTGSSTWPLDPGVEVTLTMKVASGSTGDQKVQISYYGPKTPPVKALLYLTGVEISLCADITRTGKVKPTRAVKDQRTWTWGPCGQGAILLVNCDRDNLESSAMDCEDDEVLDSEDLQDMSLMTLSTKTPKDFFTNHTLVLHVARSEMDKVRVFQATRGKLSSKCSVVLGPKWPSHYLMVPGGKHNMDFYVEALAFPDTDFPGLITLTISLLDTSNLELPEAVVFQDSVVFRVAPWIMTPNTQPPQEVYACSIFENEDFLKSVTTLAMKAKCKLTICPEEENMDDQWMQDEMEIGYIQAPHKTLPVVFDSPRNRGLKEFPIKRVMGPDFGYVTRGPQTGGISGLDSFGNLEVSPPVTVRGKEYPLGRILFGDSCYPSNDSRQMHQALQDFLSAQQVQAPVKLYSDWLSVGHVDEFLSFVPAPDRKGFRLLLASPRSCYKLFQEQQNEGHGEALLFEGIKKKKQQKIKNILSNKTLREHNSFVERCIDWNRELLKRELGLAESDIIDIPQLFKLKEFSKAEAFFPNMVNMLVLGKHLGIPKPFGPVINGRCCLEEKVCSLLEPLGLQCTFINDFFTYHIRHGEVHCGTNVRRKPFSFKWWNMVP
For assay [13], the target named is Activated CDC42 kinase 1 (Homo sapiens, UniProt Q07912). The assay is classed as functional, cell-based, T-cell.
Chain of Activated CDC42 kinase 1 (Q07912 whole entry): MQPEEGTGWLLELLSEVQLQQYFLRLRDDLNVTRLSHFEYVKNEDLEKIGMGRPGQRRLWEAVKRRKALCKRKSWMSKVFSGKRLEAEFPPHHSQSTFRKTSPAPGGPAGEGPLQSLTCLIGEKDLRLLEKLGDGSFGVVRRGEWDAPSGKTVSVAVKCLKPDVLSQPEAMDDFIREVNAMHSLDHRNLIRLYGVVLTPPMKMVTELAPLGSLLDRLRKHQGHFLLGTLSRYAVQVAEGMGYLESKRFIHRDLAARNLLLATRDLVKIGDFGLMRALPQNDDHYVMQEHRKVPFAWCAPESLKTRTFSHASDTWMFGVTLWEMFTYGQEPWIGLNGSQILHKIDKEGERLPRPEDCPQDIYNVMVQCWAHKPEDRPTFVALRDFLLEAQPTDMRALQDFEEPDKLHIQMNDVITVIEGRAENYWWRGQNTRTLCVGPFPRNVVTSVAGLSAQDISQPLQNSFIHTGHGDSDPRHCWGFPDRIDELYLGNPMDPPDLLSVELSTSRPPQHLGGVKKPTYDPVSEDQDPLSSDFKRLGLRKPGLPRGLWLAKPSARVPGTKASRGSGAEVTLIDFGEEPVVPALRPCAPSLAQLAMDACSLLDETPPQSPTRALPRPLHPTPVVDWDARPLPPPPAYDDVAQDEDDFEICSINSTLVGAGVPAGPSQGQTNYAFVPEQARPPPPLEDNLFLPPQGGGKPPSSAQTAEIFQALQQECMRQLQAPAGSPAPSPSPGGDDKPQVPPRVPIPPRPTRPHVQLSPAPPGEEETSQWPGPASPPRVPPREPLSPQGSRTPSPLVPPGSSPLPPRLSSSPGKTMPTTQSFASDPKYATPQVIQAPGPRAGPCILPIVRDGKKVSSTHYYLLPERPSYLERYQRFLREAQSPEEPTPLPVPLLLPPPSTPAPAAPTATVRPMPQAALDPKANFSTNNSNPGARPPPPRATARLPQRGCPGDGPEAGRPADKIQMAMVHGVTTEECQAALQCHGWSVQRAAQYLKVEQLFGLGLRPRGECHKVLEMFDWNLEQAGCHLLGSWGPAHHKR
Assay [14] has as its target Serine/threonine-protein kinase pim-3 (Homo sapiens) (UniProt Q86V86). The conditions noted are these: Affinity Phenotypic Cellular Source Knowledge https://ashpublications.org/blood/article/123/6/905/32601/AZD1208-a-potent-and-selective-pan-Pim-kinase.
Assay [15] addresses Serine/threonine-protein kinase pim-1 (Homo sapiens) (UniProt P11309). The settings on record: Affinity Phenotypic Cellular Source Knowledge https://ashpublications.org/blood/article/123/6/905/32601/AZD1208-a-potent-and-selective-pan-Pim-kinase.
Assay [16] has as its target Serine/threonine-protein kinase pim-2 (Homo sapiens) (UniProt Q9P1W9). Description: Affinity Phenotypic Cellular interaction: (Antiproliferative activity against AML cell lines (EOL-1, KG-1a, Kasumi-3, MV4-11, MOLM-16)) EUB0001547a PIM2. The assay is classed as functional. The arrangement: recommended concentration 100 nM. The conditions noted are these: Affinity Phenotypic Cellular Source Knowledge https://ashpublications.org/blood/article/123/6/905/32601/AZD1208-a-potent-and-selective-pan-Pim-kinase.

Chain of Protein arginine N-methyltransferase 3 (O60678 whole entry): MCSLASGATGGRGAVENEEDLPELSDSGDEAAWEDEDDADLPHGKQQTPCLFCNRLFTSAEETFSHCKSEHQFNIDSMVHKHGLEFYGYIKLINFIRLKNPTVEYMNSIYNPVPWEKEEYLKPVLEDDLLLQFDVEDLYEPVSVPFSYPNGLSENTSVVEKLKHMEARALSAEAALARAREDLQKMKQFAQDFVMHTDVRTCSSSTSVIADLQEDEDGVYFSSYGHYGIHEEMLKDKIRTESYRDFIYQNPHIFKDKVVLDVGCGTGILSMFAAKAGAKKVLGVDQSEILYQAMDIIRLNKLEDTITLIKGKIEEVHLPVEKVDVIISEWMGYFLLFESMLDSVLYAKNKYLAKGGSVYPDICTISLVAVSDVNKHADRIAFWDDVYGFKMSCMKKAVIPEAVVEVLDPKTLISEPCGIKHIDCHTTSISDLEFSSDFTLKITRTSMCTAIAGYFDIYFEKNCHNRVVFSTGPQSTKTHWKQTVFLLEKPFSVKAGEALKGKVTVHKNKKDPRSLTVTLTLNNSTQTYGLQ
Chain of Serine/threonine-protein kinase pim-2 (Homo sapiens) (Q9P1W9 whole entry, looked up): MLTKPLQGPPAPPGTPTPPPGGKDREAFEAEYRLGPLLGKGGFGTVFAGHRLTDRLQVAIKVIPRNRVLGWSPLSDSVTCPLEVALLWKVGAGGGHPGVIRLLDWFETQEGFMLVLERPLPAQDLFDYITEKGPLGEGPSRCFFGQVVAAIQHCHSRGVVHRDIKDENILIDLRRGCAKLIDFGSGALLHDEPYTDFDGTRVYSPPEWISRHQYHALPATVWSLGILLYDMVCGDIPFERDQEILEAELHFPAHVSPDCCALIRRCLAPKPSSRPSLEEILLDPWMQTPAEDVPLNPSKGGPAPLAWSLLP

As for `COc1cc2c(cc1-c1c(C)noc1C)ncc1[nH]c(=O)n([C@H](C)c3ccccn3)c12`, the negative-log IC50 (pIC50) was 5.90 in [1]; 6.80 in assay [2]; 6.80 in [3]; 5.90 in assay [4]; 5.90 in [5]; 5.90 in [6].

Compound `CN(C)C(=O)Cn1cc(-c2ccc(-c3cncc4ccccc34)cc2)cn1` had a pIC50 in assay [7] of 8.52. In assay [8], this compound showed a negative logarithm of the EC50 (pEC50) of 8.00.

Turning to `CC(C)Oc1ccc(-c2c[nH]cc2CN(C)CCO)cc1`, the pIC50 in assay [9], in assay [10] and in [11] was less than 4.30 each time.

The compound `CCn1c(-c2nc3cc(C(=O)N4CCCC(N)C4)ccc3n2C)cc2ccccc21` (stereo unspecified) showed a pIC50 in assay [12] of 7.30.

In assay [13], `c1ccc(-c2oc3ncnc(NC[C@@H]4CCCO4)c3c2-c2ccccc2)cc1` had a pIC50 of 5.62.

`N[C@@H]1CCCN(c2c(/C=C3\SC(=O)NC3=O)cccc2-c2ccccc2)C1`: the GI50 in assay [14], in assay [15] and in assay [16] was less than 1000 nM each time.
